Patent publication US8247211B2, “Glycopeptide antibiotics” (American Cyanamid Company, priority 2001, dated 2012)

Experiments:
Assay in all cases: In vitro antibacterial evaluation: minimum inhibitory concentration (MIC), broth dilution method
Assay type in all cases: cell-based
Enterococcus sp. = system: Enterococcus sp.
Summary of the method: (§1)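 First, organisms are seeded at 5×10^5 CFU/mL into Muller-Hinton II […]. Next, antibiotic is applied across 64-0.06 μg/mL by broth dilution (NCCLS M7-A2). Finally, the lowest inhibitory concentration is recorded as MIC.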

Escherichia coli = conditions: for MIC Escherichia coli (ATCC 25922): strain ATCC 25922; for MIC Escherichia coli (GC 4559): strain GC 4559; for MIC Escherichi coli (GC 4560): strain GC 4560
Summary of the method: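 Inoculum: 5×10^5 CFU/mL. Range: 64-0.06 μg/mL. Medium: Muller-Hinton II […]; NCCLS M7-A2 broth dilution. Endpoint: lowest concentration inhibiting growth. Strains include methicillin-, penicillin- and/or vancomycin-resistant clinical isolates.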

Staphylococcus sp. = conditions: broth dilution, 18 hours at 35° C.
Summary of the method: as §1

Streptococcus sp. = system: Streptococcus sp.
Summary of the method: as §1

[1] = broth dilution, inoculum 5×10^5 CFU/mL, 18 hours at 35° C.

CC(c1ccccc1)C1NC(=O)CNC(=O)C(CO)NC(=O)C(C(O)C2CNC(=N)N2C2OC(CO)C(O)C(O)C2O)NC(=O)C(C(O)C2CNC(=N)N2)NC(=O)C(Cc2ccc(OC3OC(CO)C(OC4OC5COC(c6ccc(-c7ccsc7)cc6)OC5C(O)C4O)C(O)C3O)cc2)NC1=O (stereo not drawn) [Example 164, Cyclo[glycyl-β-methylphenylalanyl-O-[4-O-[4,6-O-[4-(3-thienyl)benzylidene]hexopyranosyl]-hexopyranosyl]tyrosyl-3-(2-iminoimidazolidin-4-yl)seryl-3-(3-hexopyranosyl-2-iminoimidazolidin-4-yl)serylseryl]]
<0.06 µg/mL: MIC Streptococcus pneumoniae (ATCC 6301) (Streptococcus sp.; [1]) | MIC Streptococcus pneumoniae (GC 1894) (Streptococcus sp.; [1]) | MIC Streptococcus pneumoniae (GC 4565) (Streptococcus sp.; [1]) | MIC Streptococcus pneumoniae (ATCC 6301) (Streptococcus sp.; strain ATCC 6301) | MIC Streptococcus pneumoniae (GC 1894) (Streptococcus sp.; strain GC 1894) | MIC Streptococcus pneumoniae (GC 4565) (Streptococcus sp.; strain GC 4565)
16 µg/mL: MIC Enterococcus faecalis (GC 4554) (Enterococcus sp.; [1]) | MIC Enterococcus faecalis (GC 4554) (Enterococcus sp.; strain GC 4554) | MIC Staphylococcus aureus (GC 3051) (Staphylococcus sp.; 5×10^5 CFU/mL) | MIC Staphylococcus aureus (GC 4542) (Staphylococcus sp.; 5×10^5 CFU/mL) | MIC Staphylococcus aureus (GC 3051) (Staphylococcus sp.; strain GC 3051) | MIC Staphylococcus aureus (GC 4542) (Staphylococcus sp.; strain GC 4542)
8 µg/mL: MIC Enterococcus avium (GC 4558) (Enterococcus sp.; [1]) | MIC Enterococcus faecalis (ATCC 29212) (Enterococcus sp.; [1]) | MIC Enterococcus faecalis (GC 2691) (Enterococcus sp.; [1]) | MIC Enterococcus faecalis (GC 3059) (Enterococcus sp.; [1]) | MIC Enterococcus faecalis (GC 4552) (Enterococcus sp.; [1]) | MIC Enterococcus faecalis (GC 4553) (Enterococcus sp.; [1]) | MIC Enterococcus faecium (GC 2243) (Enterococcus sp.; [1]) | MIC Enterococcus faecium (GC 4556) (Enterococcus sp.; [1]) | MIC Enterococcus faecalis (ATCC 29212) (Enterococcus sp.; strain ATCC 29212) | MIC Enterococcus faecium (GC 2243) (Enterococcus sp.; strain GC 2243) | MIC Enterococcus faecalis (GC 2691) (Enterococcus sp.; strain GC 2691) | MIC Enterococcus faecalis (GC 3059) (Enterococcus sp.; strain GC 3059) | MIC Enterococcus faecalis (GC 4552) (Enterococcus sp.; strain GC 4552) | MIC Enterococcus faecalis (GC 4553) (Enterococcus sp.; strain GC 4553) | MIC Enterococcus faecium (GC 4556) (Enterococcus sp.; strain GC 4556) | MIC Enterococcus avium (GC 4558) (Enterococcus sp.; strain GC 4558) | MIC Staphylococcus aureus (ATCC 29213) (Staphylococcus sp.; 5×10^5 CFU/mL) | MIC Staphylococcus aureus (GC 3053) (Staphylococcus sp.; 5×10^5 CFU/mL) | MIC Staphylococcus aureus (GC 4541) (Staphylococcus sp.; 5×10^5 CFU/mL) | MIC Staphylococcus aureus (GC 4544) (Staphylococcus sp.; 5×10^5 CFU/mL) | MIC Staphylococcus aureus (ATCC 29213) (Staphylococcus sp.; strain ATCC 29213) | MIC Staphylococcus aureus (GC 3053) (Staphylococcus sp.; strain GC 3053) | MIC Staphylococcus aureus (GC 4541) (Staphylococcus sp.; strain GC 4541) | MIC Staphylococcus aureus (GC 4544) (Staphylococcus sp.; strain GC 4544)
1 µg/mL: MIC Coagulase Negative Staphylococcus (GC 4548) (Staphylococcus sp.; 5×10^5 CFU/mL) | MIC Coagulase Negative Staphylococcus (GC 6257) (Staphylococcus sp.; 5×10^5 CFU/mL) | MIC Coagulase Negative Staphylococcus (GC 4548) (Staphylococcus sp.; strain GC 4548) | MIC Coagulase Negative Staphylococcus (GC 6257) (Staphylococcus sp.; strain GC 6257)
0.5 µg/mL: MIC Coagulase Negative Staphylococcus (GC 4549) (Staphylococcus sp.; 5×10^5 CFU/mL) | MIC Coagulase Negative Staphylococcus (GC 4549) (Staphylococcus sp.; strain GC 4549)
4 µg/mL: MIC Enterococcus faecalis (GC 2242) (Enterococcus sp.; [1]) | MIC Enterococcus faecalis (GC 6189) (Enterococcus sp.; [1]) | MIC Enterococcus faecium (GC 4557) (Enterococcus sp.; [1]) | MIC Enterococcus faecalis (GC 2242) (Enterococcus sp.; strain GC 2242) | MIC Enterococcus faecium (GC 4557) (Enterococcus sp.; strain GC 4557) | MIC Enterococcus faecalis (GC 6189) (Enterococcus sp.; strain GC 6189) | MIC Escherichi coli (GC 4560) (Escherichia coli) | MIC Coagulase Negative Staphylococcus (GC 4547) (Staphylococcus sp.; 5×10^5 CFU/mL) | MIC Coagulase Negative Staphylococcus (GC 4551) (Staphylococcus sp.; 5×10^5 CFU/mL) | MIC Staphylococcus aureus (GC 1131) (Staphylococcus sp.; 5×10^5 CFU/mL) | MIC Staphylococcus aureus (GC 4545) (Staphylococcus sp.; 5×10^5 CFU/mL) | MIC Staphylococcus aureus-SMITH (GC 4543) (Staphylococcus sp.; 5×10^5 CFU/mL) | MIC Staphylococcus haemolyticus (GC 4546) (Staphylococcus sp.; 5×10^5 CFU/mL) | MIC Staphylococcus aureus (GC 1131) (Staphylococcus sp.; strain GC 1131) | MIC Staphylococcus aureus-SMITH (GC 4543) (Staphylococcus sp.; strain GC 4543) | MIC Staphylococcus aureus (GC 4545) (Staphylococcus sp.; strain GC 4545) | MIC Staphylococcus haemolyticus (GC 4546) (Staphylococcus sp.; strain GC 4546) | MIC Coagulase Negative Staphylococcus (GC 4547) (Staphylococcus sp.; strain GC 4547) | MIC Coagulase Negative Staphylococcus (GC 4551) (Staphylococcus sp.; strain GC 4551)
>64 µg/mL: MIC Escherichia coli (ATCC 25922) (Escherichia coli)
64 µg/mL: MIC Escherichia coli (GC 4559) (Escherichia coli)
0.12 µg/mL: MIC Streptococcus agalactiae (GC 4564) (Streptococcus sp.; [1]) | MIC Streptococcus pyogenes (GC 4563) (Streptococcus sp.; [1]) | MIC Streptococcus pyogenes (GC 4563) (Streptococcus sp.; strain GC 4563) | MIC Streptococcus agalactiae (GC 4564) (Streptococcus sp.; strain GC 4564)

CC(c1ccccc1)C1NC(=O)CNC(=O)C(CO)NC(=O)C(C(O)C2CNC(=N)N2C2OC(CO)C(O)C(O)C2O)NC(=O)C(C(O)C2CNC(=N)N2)NC(=O)C(Cc2ccc(OC3OC(CO)C(OC4OC(CO)C(O)C5OC(c6ccc(-c7ccsc7)cc6)OC45)C(O)C3O)cc2)NC1=O (stereo not drawn) [Example 164a, Cyclo[glycyl-β-methylphenylalanyl-O-[4-O-[2,3-O-[4-(3-thienyl)benzylidene]hexopyranosyl]-hexopyranosyl]tyrosyl-3-(2-iminoimidazolidin-4-yl)seryl-3-(3-hexopyranosyl-2-iminoimidazolidin-4-yl)serylseryl]]
8 µg/mL: MIC Enterococcus avium (GC 4558) (Enterococcus sp.; [1]) | MIC Enterococcus faecium (GC 2243) (Enterococcus sp.; [1]) | MIC Enterococcus faecium (GC 2243) (Enterococcus sp.; strain GC 2243) | MIC Enterococcus avium (GC 4558) (Enterococcus sp.; strain GC 4558) | MIC Escherichi coli (GC 4560) (Escherichia coli) | MIC Coagulase Negative Staphylococcus (GC 4547) (Staphylococcus sp.; 5×10^5 CFU/mL) | MIC Coagulase Negative Staphylococcus (GC 4551) (Staphylococcus sp.; 5×10^5 CFU/mL) | MIC Staphylococcus aureus (ATCC 29213) (Staphylococcus sp.; 5×10^5 CFU/mL) | MIC Staphylococcus aureus (GC 1131) (Staphylococcus sp.; 5×10^5 CFU/mL) | MIC Staphylococcus aureus (GC 3051) (Staphylococcus sp.; 5×10^5 CFU/mL) | MIC Staphylococcus aureus (GC 3053) (Staphylococcus sp.; 5×10^5 CFU/mL) | MIC Staphylococcus aureus (GC 4541) (Staphylococcus sp.; 5×10^5 CFU/mL) | MIC Staphylococcus aureus (GC 4544) (Staphylococcus sp.; 5×10^5 CFU/mL) | MIC Staphylococcus aureus (GC 4545) (Staphylococcus sp.; 5×10^5 CFU/mL) | MIC Staphylococcus aureus-SMITH (GC 4543) (Staphylococcus sp.; 5×10^5 CFU/mL) | MIC Staphylococcus aureus (ATCC 29213) (Staphylococcus sp.; strain ATCC 29213) | MIC Staphylococcus aureus (GC 1131) (Staphylococcus sp.; strain GC 1131) | MIC Staphylococcus aureus (GC 3051) (Staphylococcus sp.; strain GC 3051) | MIC Staphylococcus aureus (GC 3053) (Staphylococcus sp.; strain GC 3053) | MIC Staphylococcus aureus (GC 4541) (Staphylococcus sp.; strain GC 4541) | MIC Staphylococcus aureus-SMITH (GC 4543) (Staphylococcus sp.; strain GC 4543) | MIC Staphylococcus aureus (GC 4544) (Staphylococcus sp.; strain GC 4544) | MIC Staphylococcus aureus (GC 4545) (Staphylococcus sp.; strain GC 4545) | MIC Coagulase Negative Staphylococcus (GC 4547) (Staphylococcus sp.; strain GC 4547) | MIC Coagulase Negative Staphylococcus (GC 4551) (Staphylococcus sp.; strain GC 4551)
4 µg/mL: MIC Enterococcus faecium (GC 4557) (Enterococcus sp.; [1]) | MIC Enterococcus faecium (GC 4557) (Enterococcus sp.; strain GC 4557) | MIC Coagulase Negative Staphylococcus (GC 4548) (Staphylococcus sp.; 5×10^5 CFU/mL) | MIC Coagulase Negative Staphylococcus (GC 4549) (Staphylococcus sp.; 5×10^5 CFU/mL) | MIC Coagulase Negative Staphylococcus (GC 6257) (Staphylococcus sp.; 5×10^5 CFU/mL) | MIC Staphylococcus haemolyticus (GC 4546) (Staphylococcus sp.; 5×10^5 CFU/mL) | MIC Staphylococcus haemolyticus (GC 4546) (Staphylococcus sp.; strain GC 4546) | MIC Coagulase Negative Staphylococcus (GC 4548) (Staphylococcus sp.; strain GC 4548) | MIC Coagulase Negative Staphylococcus (GC 4549) (Staphylococcus sp.; strain GC 4549) | MIC Coagulase Negative Staphylococcus (GC 6257) (Staphylococcus sp.; strain GC 6257)
1 µg/mL: MIC Streptococcus agalactiae (GC 4564) (Streptococcus sp.; [1]) | MIC Streptococcus pneumoniae (ATCC 6301) (Streptococcus sp.; [1]) | MIC Streptococcus pneumoniae (GC 4565) (Streptococcus sp.; [1]) | MIC Streptococcus pneumoniae (ATCC 6301) (Streptococcus sp.; strain ATCC 6301) | MIC Streptococcus agalactiae (GC 4564) (Streptococcus sp.; strain GC 4564) | MIC Streptococcus pneumoniae (GC 4565) (Streptococcus sp.; strain GC 4565)
0.25 µg/mL: MIC Streptococcus pneumoniae (GC 1894) (Streptococcus sp.; [1]) | MIC Streptococcus pneumoniae (GC 1894) (Streptococcus sp.; strain GC 1894)
16 µg/mL: MIC Enterococcus faecalis (ATCC 29212) (Enterococcus sp.; [1]) | MIC Enterococcus faecalis (GC 2242) (Enterococcus sp.; [1]) | MIC Enterococcus faecalis (GC 2691) (Enterococcus sp.; [1]) | MIC Enterococcus faecalis (GC 3059) (Enterococcus sp.; [1]) | MIC Enterococcus faecalis (GC 4552) (Enterococcus sp.; [1]) | MIC Enterococcus faecalis (GC 4553) (Enterococcus sp.; [1]) | MIC Enterococcus faecalis (GC 4554) (Enterococcus sp.; [1]) | MIC Enterococcus faecalis (GC 6189) (Enterococcus sp.; [1]) | MIC Enterococcus faecium (GC 4556) (Enterococcus sp.; [1]) | MIC Enterococcus faecalis (ATCC 29212) (Enterococcus sp.; strain ATCC 29212) | MIC Enterococcus faecalis (GC 2242) (Enterococcus sp.; strain GC 2242) | MIC Enterococcus faecalis (GC 2691) (Enterococcus sp.; strain GC 2691) | MIC Enterococcus faecalis (GC 3059) (Enterococcus sp.; strain GC 3059) | MIC Enterococcus faecalis (GC 4552) (Enterococcus sp.; strain GC 4552) | MIC Enterococcus faecalis (GC 4553) (Enterococcus sp.; strain GC 4553) | MIC Enterococcus faecalis (GC 4554) (Enterococcus sp.; strain GC 4554) | MIC Enterococcus faecium (GC 4556) (Enterococcus sp.; strain GC 4556) | MIC Enterococcus faecalis (GC 6189) (Enterococcus sp.; strain GC 6189) | MIC Staphylococcus aureus (GC 4542) (Staphylococcus sp.; 5×10^5 CFU/mL) | MIC Staphylococcus aureus (GC 4542) (Staphylococcus sp.; strain GC 4542)
32 µg/mL: MIC Escherichia coli (ATCC 25922) (Escherichia coli) | MIC Escherichia coli (GC 4559) (Escherichia coli)
0.5 µg/mL: MIC Streptococcus pyogenes (GC 4563) (Streptococcus sp.; [1]) | MIC Streptococcus pyogenes (GC 4563) (Streptococcus sp.; strain GC 4563)
